Consider two substances from patent US20220016272A1, “COMPOSITIONS, METHODS AND KITS FOR DIAGNOSING AND TREATING CD206 EXPRESSING CELL-RELATED DISORDERS” (Cardinal Health 414, LLC, priority 2013, published 2022).

The target in series [1] is mannose receptor protein CD206 (Homo sapiens, UniProt P22897).
For series [2] the following is noted: staging breast cancer, melanoma or SCC; cited from earlier work.
The test system of series [3] is Kaposi's sarcoma lesion(s). In words: SPECT and SPECT/CT imaging of primary cutaneous Kaposi's sarcoma. Type of series: in vivo, human. Conditions: 50 μg tilmanocept, 2.0 mCi 99mTc, subcutaneous; example in present tense. The method, then: The following illustrates yet another example of the evaluation of Primary Cutaneous Kaposi's Sarcoma (KS) by SPECT and SPECT/CT Imaging using Lymphoseek® (also known as technetium 99mTc-tilmanocept injection) a radiopharmaceutical that binds to mannose binding receptors (CD206) that reside on the surfaces of dendritic cells and macrophages.
The total volume of 99mTc-tilmanocept injection is 0.3 to 0.5 mL.
The patient has a marker lesion (>1 cm in diameter) with a confirmed diagnosis of KS (CD206-expressing cutaneous KS) via punch biopsy. The location of the marker KS lesion is on the extremities: from the shoulder to the metacarpal region or from the groin to the metatarsal region.
The dose is administered by a syringe with a ⅝ inch, 25- or 27-gauge, fixed needle, or other syringe/needle combinations that are acceptable for subcutaneous injections. The injection is made 1.5±0.25 cm distal from the marker lesion, 4-8 cm distal to the marker lesion, or 4-8 cm proximal to the marker lesion.
The patient undergoes a regional dynamic SPECT scan immediately post-injection for a duration of 30 minutes. After the initial scan, the patient undergoes whole body SPECT/CT imaging at 1 hour and whole body SPECT imaging at 4-6 hours post injection. The patient is permitted to leave the imaging center after the 4-6 hour SPECT scan. […]

Chain of mannose receptor protein CD206 (P22897 19-1456): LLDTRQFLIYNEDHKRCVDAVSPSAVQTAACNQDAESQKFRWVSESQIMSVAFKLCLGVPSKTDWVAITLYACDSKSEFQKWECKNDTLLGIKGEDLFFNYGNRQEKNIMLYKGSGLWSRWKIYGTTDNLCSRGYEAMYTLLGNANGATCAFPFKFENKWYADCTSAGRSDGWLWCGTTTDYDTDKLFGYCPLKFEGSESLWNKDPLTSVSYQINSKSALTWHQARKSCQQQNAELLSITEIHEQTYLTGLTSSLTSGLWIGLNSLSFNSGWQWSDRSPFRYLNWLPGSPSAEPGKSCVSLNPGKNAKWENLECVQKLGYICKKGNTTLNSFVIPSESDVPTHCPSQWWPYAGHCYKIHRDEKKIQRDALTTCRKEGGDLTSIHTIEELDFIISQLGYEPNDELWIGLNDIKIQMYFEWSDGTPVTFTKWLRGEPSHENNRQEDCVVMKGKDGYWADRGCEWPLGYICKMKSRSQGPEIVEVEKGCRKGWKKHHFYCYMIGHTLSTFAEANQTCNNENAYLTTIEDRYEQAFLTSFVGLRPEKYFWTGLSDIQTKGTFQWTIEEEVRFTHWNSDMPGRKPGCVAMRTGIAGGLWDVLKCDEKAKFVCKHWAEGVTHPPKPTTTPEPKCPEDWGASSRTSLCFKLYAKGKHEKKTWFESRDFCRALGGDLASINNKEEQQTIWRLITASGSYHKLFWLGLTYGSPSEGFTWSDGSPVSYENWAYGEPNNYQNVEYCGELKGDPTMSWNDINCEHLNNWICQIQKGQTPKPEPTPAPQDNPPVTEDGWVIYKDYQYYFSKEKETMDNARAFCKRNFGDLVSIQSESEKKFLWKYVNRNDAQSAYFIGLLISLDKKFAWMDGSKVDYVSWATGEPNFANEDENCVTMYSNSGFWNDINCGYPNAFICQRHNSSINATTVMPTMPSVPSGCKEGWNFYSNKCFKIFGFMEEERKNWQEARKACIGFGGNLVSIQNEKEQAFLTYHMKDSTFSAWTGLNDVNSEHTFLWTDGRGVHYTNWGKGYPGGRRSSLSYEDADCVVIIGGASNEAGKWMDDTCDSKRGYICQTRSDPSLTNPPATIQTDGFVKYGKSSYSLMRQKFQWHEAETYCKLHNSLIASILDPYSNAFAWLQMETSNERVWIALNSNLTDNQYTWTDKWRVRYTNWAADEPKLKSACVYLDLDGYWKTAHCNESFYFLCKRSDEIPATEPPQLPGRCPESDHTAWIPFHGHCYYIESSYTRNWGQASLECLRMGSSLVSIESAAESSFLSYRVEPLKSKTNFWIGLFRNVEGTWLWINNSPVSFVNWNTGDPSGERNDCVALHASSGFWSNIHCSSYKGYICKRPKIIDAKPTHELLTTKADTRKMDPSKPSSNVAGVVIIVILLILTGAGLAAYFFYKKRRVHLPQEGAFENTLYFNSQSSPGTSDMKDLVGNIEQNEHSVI

For the substance “dextran 3-[(2-aminoethyl)thio]propyl 17-carboxy-10,13,16-tris (carboxymethyl)-8-oxo-4-thia-7,10,13,16-tetraazaheptadec-1-yl 3-[[2-[[1-imino-2-(D-mannopyranosylthio) ethyl]aminolethyllthiolpropyl ether complexes [tilmanocept]”, the “intracellular fate after uptake into macrophage” value in series [1] was “persists in stable non-digesting vesicles”. Besides, the receptor specificity result in series [1] (administered to mammals or contacted with CD206 expressing cells ex vivo) is listed as “bind exclusively to the mannose receptor protein CD206”.
As for “technetium Tc 99m, dextran 3-[(2-aminoethyl)thio]propyl 17-carboxy-10,13,16-tris(carboxymethyl)-8-oxo-4-thia-7,10,13,16-tetraaz aheptadec-1-yl 3-[[2-[[1-imino-2-(D-mannopyranosylthio) ethyl]amino]ethyl]thio]propyl ether complexes [Lymphoseek]”, in series [2], the injection site clearance result is listed as “rapid clearance from an injection site”; the “uptake by distal or second-echelon lymph nodes” value is recorded as “low uptake by distal or second-echelon lymph nodes”; the “uptake by the sentinel lymph node(s)” value was “rapid and sustained uptake by the sentinel lymph node(s)”. In addition, the “detection of KS lesions by SPECT and SPECT/CT” value in series [3] is recorded as “aids in the detection of Kaposi's sarcoma lesion(s)”.
